Like-named read-outs stand apart in the source and are kept apart here.
How the values were obtained:
[1] = Blood elimination kinetics of contrast media in rats after one-time intravenous administration; assay type: in vivo, rats (Han Wistar, Schering SPF); conditions: for distribution volume Vss, MEAN / elimination half-life Tβ, MEAN / total clearance CLtot, MEAN: one-time i.v., Dy-DTPA 100 μmol Dy/kg (n=3), Example 1c 50 μmol Gd/kg (n=2), TOPFIT 2.0
Procedure: The blood elimination kinetics of contrast media was examined in rats (Han Wistar, Schering SPF, ≈250 g of body weight). For this purpose, after one-time intravenous administration (via a caudal vein) of the substances (dose: 50-100 μmol of Me per kg of body weight), the substance concentration in the blood (based on the Gd or Dy content) was determined over a period of up to 300 minutes p.i. with the aid of ICP-AES. The pharmacokinetic parameters: distribution volume (Vss), total clearance (CLtot) and elimination half-life (tβ) were calculated with a special computer program (TOPFIT 2.0; Thomae, Schering, Gödecke), whereby a one- or two-compartment distribution model was used as a basis.
FIG. 1 represents elimination from the blood (in % of the injected dose) of Dy-DTPA (dose: 100 μmol of Dy per kg of body weight, n=3) and of the fluorine compounds of Example 1c according to the invention (dose: 50 μmol of Gd per kg of body weight, n=2) after one-time intravenous administration of substances in rats (Han Wistar, Schering SPF, ≈250 g of body weight).
The Gd and Dy contents in the blood were determined with the aid of ICP-AES.

[2] = T1-relaxivity with Minispec pc 20 (20 MHz, 0.47T) at 37° C. in water and human plasma; assay type: physicochemical; conditions: for T1-relaxivity: 20 MHz; for R^1 [L/mmol * sec] at 0.47 T and 37° C. Plasma / R^1 [L/mmol * sec] at 0.47 T and 37° C. Water: T1-relaxivity, Minispec pc 20 (20 MHz, 0.47 T); for R^1 [L/mmol * sec] at 0.47 T and 37° C. Plasma: in human plasma; for R^1 [L/mmol * sec] at 0.47 T and 37° C. Water: in water
Procedure: The relaxivity of the following compounds was determined with a Minispec pc 20 (20 MHz, 0.47T) at 37° C. in water and human plasma and compared to that of Gd-DTPA-polylysine and Magnevist^(R) as comparison substances.

[3] = Elimination of the contrast medium after i.p. administration (retention of metal in liver and remainder of the body); assay type: in vivo; conditions: rats, i.p. 100 μmol of total gadolinium/kg, 14 days p.i.
From the text: After administration of a perfluorinated gadolinium complex according to the invention (100 μmol of total gadolinium/kg of body weight) in the intraperitoneal space of rats, the retention of metal in the liver as well as in the remainder of the body was examined 14 days after administration. In this test, fluorine-containing compound 2c) was used. After 14 days p.i., the gadolinium concentration was 0.22% of the administered dose in the liver and 1.1% of the administered dose in the remainder of the body.

[4] = Lymph node visualization (MRT) after interstitial administration of the contrast medium; assay type: in vivo; conditions: guinea pigs, 120 minutes after s.c. 10 μmol of Gd/kg, T1-weighted spin echo (TR 400 ms, TE 15 ms)
Procedure: It was possible to confirm the special suitability of the compounds according to the invention in MR imaging studies in guinea pigs. Thus, 120 minutes after subcutaneous administration of 10 μmol/kg of body weight of a perfluorine-containing gadolinium complex (guinea pigs, hind paw, interdigital space) in T^1-weighted spin-echo images (TR 400 ms, TE 15 ms), a clear enhancement of the popliteal lymph nodes (270%) as well as the inguinal lymph nodes (104%) was observed (cf. Image 1).

[5] = rat, in vivo, iv; cited from earlier work
[6] = T1-relaxivity, from Invest. Radiol. 1992, 346, cited from earlier work

Compound | T1-relaxivity ([2]; human plasma) [L/mmol/s] | T1-relaxivity ([2]; water) [L/mmol/s] | R^1 [L/mmol * sec] at 0.47 T and 37° C. Plasma [2] [L/mmol/s] | R^1 [L/mmol * sec] at 0.47 T and 37° C. Water [2] [L/mmol/s] | further results
O=C([O-])CN(CCN(CC(=O)[O-])CC(=O)[O-])CCN(CC(=O)[O-])CC(=O)[O-].[Dy+3].[Na+].[Na+] [Dy-DTPA, reference compound] |  |  |  |  | distribution volume Vss, MEAN [1]: 0.17 L/kg; elimination half-life Tβ, MEAN [1]: 14.98 min; total clearance CLtot, MEAN [1]: 9.27 mL/min/kg
CCN(CC(=O)NCC(O)CN1CCN(CC(=O)[O-])CCN(CC(=O)[O-])CCN(CC(=O)[O-])CC1)S(=O)(=O)C(F)(F)C(F)(F)C(F)(F)C(F)(F)C(F)(F)C(F)(F)C(F)(F)C(F)(F)F.[Gd+3] (stereo not drawn) [Example 1c, Gadolinium Complex of 10-[2-hydroxy-4-aza-5-oxo-7aza-7-(perfluorooctylsulfonyl)-nonyl]-1,4,7-tris(carboxymethyl)-1,4,7,10-tetraazacyclododecane] | 49 | 41 | 49 | 41 | distribution volume in comparison to Dy-DTPA ([1]; i.v.): smaller distribution volume; elimination from the blood in comparison to Dy-DTPA ([1]; i.v.): considerably slower elimination from the blood; distribution volume Vss, MEAN [1]: 0.14 L/kg; elimination half-life Tβ, MEAN [1]: 95.01 min; total clearance CLtot, MEAN [1]: 1.07 mL/min/kg
CCN(CC(=O)NCC(O)CN1CCN(CC(=O)[O-])CCN(CC(=O)[O-])CCN(CC(=O)[O-])CC1)S(=O)(=O)C(F)(F)C(F)(F)C(F)(F)C(F)(F)C(F)(F)C(F)(F)C(F)(F)C(F)(F)F.[Mn+2].[Na+] (stereo not drawn) [Example 1e, Manganese complex of 10-[2-hydroxy-4-aza-5-oxo-7-aza-7-(perfluorooctylsulfonyl)-nonyl]-1,4,7-tris(carboxymethyl)-1,4,7,10-tetraazacyclododecane (as sodium salt)] | 4.2 | 2.7 |  |  | 
O=C([O-])CN1CCN(CC(=O)[O-])CCN(CC(O)CNC(=O)COCCC(F)(F)C(F)(F)C(F)(F)C(F)(F)C(F)(F)C(F)(F)C(F)(F)C(F)(F)F)CCN(CC(=O)[O-])CC1.[Gd+3] (stereo not drawn) [Example 2c, Gadolinium complex of 10-[2-hydroxy-4-aza-5-oxo-7-oxa-10,10,11,11,12,12,13,13,14,14,15,15,16,16,17,17,17-heptadecafluoroheptadecyl]-1,4,7-tris(carboxymethyl)-1,4,7,10-tetraazacyclododecane] | 33 | 19 | 33 | 19 | gadolinium concentration in the liver [3]: 0.22 % of the administered dose; gadolinium concentration in the remainder of the body [3]: 1.1 % of the administered dose; signal in the popliteal and inguinal lymph nodes of the injected side vs non-injected side or precontrast image [4]: strong signal rise
O=C([O-])CN1CCN(CC(=O)[O-])CCN(CC(O)COCCC(F)(F)C(F)(F)C(F)(F)C(F)(F)C(F)(F)C(F)(F)C(F)(F)C(F)(F)F)CCN(CC(=O)[O-])CC1.[Gd+3] (stereo not drawn) [Example 3c, Gadolinium complex of 10-[-2hydroxy-4-oxa-1H,1H,2H,3H,3H,5H,5H,6H,6H-perfluorotetradecyl]-1,4,7-tris(carboxymethyl)-1,4,7,10-tetraazacyclododecane] | 27.5 | 15.2 | 27.5 | 15.2 | 
CNC[C@H](O)[C@@H](O)[C@H](O)[C@H](O)CO.CNC[C@H](O)[C@@H](O)[C@H](O)[C@H](O)CO.O=C([O-])CN(CCN(CC(=O)[O-])CC(=O)O)CCN(CC(=O)[O-])CC(=O)O.[Gd+3] [Magnevist, reference compound] |  |  | 4.8 | 3.8 | 
albumin-Gd-DTPA |  |  |  |  | concentration in the liver tissue [5]: ~30 % of the dose
polylysine-Gd-DTPA |  |  |  |  | R^1 [L/mmol * sec] at 0.47 T and 37° C. Plasma ([6]; in plasma): 16.8 L/mmol/s; R^1 [L/mmol * sec] at 0.47 T and 37° C. Water ([6]; in water): 13.1 L/mmol/s
